According to paper PMC8833476, “Short-Term Effects of Temperature and Thyrotropin-Releasing Hormone Stimulation on Adrenocorticotropin Stability in Horses” (Animals : an Open Access Journal from MDPI, 2022):

Tests used:
[1] = Short-term stability of immunoreactive ACTH in whole blood stored 1 h at 4, 20, 30, 40 or 70 °C; type: in vitro ADME, horse; conditions: for Mean change of immunoreactive ACTH concentration after 1 h: whole blood 1 h at 20 °C vs 4 °C; for ACTH concentration as percentage of the reference sample (4 °C = 100%), range over horses: equine EDTA whole blood
Experimental: For horses that underwent TRH stimulation, blood was collected 30 min after receiving 1 mg of TRH intravenously (Sigma-Aldrich Pty Ltd. (subsidiary of Merck), North Ryde BC, New South Wales, Australia). Blood was sampled between 7 and 8 am. All procedures were approved by the University of Queensland Animal Ethics Committee, approval number SVS/474/17, 22nd December 2017.
Samples were taken to the laboratory within 1 h of collection. They were then stored as whole blood either in a temperature-monitored refrigerator (4 °C), in a temperature-controlled room (20 °C), or in incubators (30, 40, or 70 °C) for 1 h. Samples were then centrifuged at 3500× g at 4 °C for 10 min. The plasma was separated and analyzed within 2 h of collection from the horse. […] Due to the necessity of analyzing all samples within a 2-h window from collection, and limitations on the speed of the analyzer, the 15 horses were sampled over a 4-day period. The samples from each horse were run using the same kit.
The reference sample was defined as the sample stored at 4 °C.

[2] = delaying centrifugation of horse blood by 1 h; cited from earlier work
[3] = room temperature (21 °C), analyzed prior to 8 h; mostly PPID-negative horses; cited from earlier work
Description: In contrast, our study found t ...

[4] = human blood samples at room temperature; cited from earlier work

| Substance | Mean change of immunoreactive ACTH concentration after 1 h ([1]; PPID horses) | Bland–Altman mean bias of ACTH concentration, 4 versus 20 °C ([1]; equine EDTA whole blood stored 1 h at 20 °C vs 4 °C reference, then centrifuged, plasma immunoreactive ACTH by Immulite 1000 chemiluminescent assay, 15 horses) | Bland–Altman mean bias of ACTH concentration, 4 versus 30 °C ([1]; equine EDTA whole blood stored 1 h at 30 °C vs 4 °C reference, Immulite 1000 chemiluminescent assay, 15 horses) | Bland–Altman mean bias of ACTH concentration, 4 versus 40 °C ([1]; equine EDTA whole blood stored 1 h at 40 °C vs 4 °C reference, Immulite 1000 chemiluminescent assay, 15 horses) | Bland–Altman mean bias of ACTH concentration, 4 versus 70 °C ([1]; equine EDTA whole blood stored 1 h at 70 °C vs 4 °C reference, Immulite 1000 chemiluminescent assay, only 9 of 15 samples analysable) | ACTH concentration as percentage of the reference sample (4 °C = 100%), range over horses ([1]; 1 h at 20 °C, Immulite 1000 chemiluminescent assay, 15 horses (PPID and non-PPID, basal and post-TRH), not significant) | ACTH concentration as percentage of the reference sample (4 °C = 100%), range over horses ([1]; 1 h at 30 °C, Immulite 1000, 15 horses, not significant) | ACTH concentration as percentage of the reference sample (4 °C = 100%), range over horses ([1]; 1 h at 40 °C, Immulite 1000, 15 horses, not significant) | ACTH concentration as percentage of the reference sample (4 °C = 100%), range over horses ([1]; 1 h at 70 °C, Immulite 1000, 9 of 15 samples analysable (solidification), p = 0.001) | Mean change of immunoreactive ACTH concentration after 1 h ([1]; non-PPID horses) | Measured ACTH concentration, reference sample ([1]; one non-PPID horse, post-TRH stimulation, whole blood 1 h at 4 °C, single horse) | Measured ACTH concentration after storage ([1]; one non-PPID horse, post-TRH stimulation, whole blood 1 h at 20 °C, single horse) | Measured ACTH concentration after storage ([1]; one non-PPID horse, post-TRH stimulation, whole blood 1 h at 40 °C, single horse) | Deviation of measured ACTH concentration above the same sample stored at 4 °C ([1]; whole blood 1 h at 20 °C, maximum over horses) | Mean reduction in the measured ACTH concentration [2] | Difference between samples kept at room temperature and at 4 °C [3] | Time at room temperature prior to centrifugation at which the measured ACTH concentration is altered [4] |
| --- | --- | --- | --- | --- | --- | --- | --- | --- | --- | --- | --- | --- | --- | --- | --- | --- | --- |
| adrenocorticotropic hormone [ACTH] | 5% | -2.8 pg/mL | -1.38 pg/mL | -0.16 pg/mL | 10.1 pg/mL | 84.3 to 122.1% | 89.4 to 115.6% | 86.5 to 116.3% | 72 to 94.4% | 12% | 60.9 pg/mL | 69.1 pg/mL | 70.8 pg/mL | up to 22% | 11.6 pg/mL | no difference |  |
| human ACTH: endogenous human ACTH, reported as highly unstable due to proteolytic degradation (SYSMEHFRWGKPVGKKRRPVKVYPNGAEDESAEAFPLEF; Corticotropin; UniProt P01189 138-176, looked up) |  |  |  |  |  |  |  |  |  |  |  |  |  |  |  |  | ≥ 4 h |
